Test results as given in paper PMC10720285 (ACS Omega, 2023).

Key:
Type in all cases: cell-based
[1] = test system: HepG2; assay: MTT antiproliferative assay, HepG2; conditions: Homo sapiens, HepG2, 72 h, read-out: IC50 values HepG2
[2] = test system: MCF7; assay: MTT antiproliferative assay, MCF7; conditions: Homo sapiens, MCF7, 72 h, read-out: IC50 values MCF7
[3] = test system: A549; assay: MTT antiproliferative assay, A549; conditions: Homo sapiens, A549, 72 h, read-out: IC50 values A549
[4] = test system: MCF-10A; assay: MTT cytotoxicity assay, noncancerous MCF-10A; conditions: Homo sapiens, 72 h, read-out: IC50 values MCF-10A

| SMILES | IC50 [1] [µM] | IC50 [2] [µM] | IC50 [3] [µM] | IC50 [4] [µM] |
| --- | --- | --- | --- | --- |
| Nc1c2c(nc(=S)n1-c1ccccc1)OC1=C(C(=O)CCC1)C2c1cccs1 (centres unmarked) [Compound 7, 4-Amino-3-phenyl-5-(thiophen-2-yl)-2-thioxo-2,3,5,7,8,9-hexahydro-6H-chromeno[2,3-d]pyrimidin-6-one] | 6.26 ± 0.32 | 5.6 ± 1.12 | 7.28 ± 1.34 | 78.5 ± 2.05 |
| Nc1nc(=O)[nH]c2c1C(c1cccs1)C1=C(CCCC1=O)O2 (centres unmarked) [Compound 4a, 4-Amino-5-(thiophen-2-yl)-5,7,8,9-tetrahydro-2H-chromeno[2,3-d]pyrimidine-2,6(1H)-dione] | 13.7 ± 3.81 | 14.3 ± 2.05 | 14.9 ± 3.12 | 60.1 ± 2.31 |
| N#CC1=C(N)OC2=C(C(=O)CCC2)C1c1cccs1 (centres unmarked) [Compound 1, 2-Amino-5-oxo-4-(thiophen-2-yl)-5,6,7,8-tetrahydro-4H-chromene-3-carbonitrile] | 33.9 ± 3.34 | 39.8 ± 3.35 | 36.3 ± 3.37 |  |
| O=C1CCCC2=C1C(c1cccs1)C1=C(NC(=O)N3CCN=C13)O2 (centres unmarked) [Compound 15, 12-(Thiophen-2-yl)-2,6,8,9,10,12-hexahydro-5H-chromeno[3,2-e]imidazo[1,2-c]pyrimidine-5,11(3H)-dione] | 19.3 ± 2.06 | 19.3 ± 3.37 | 19 ± 3.45 | 52.3 ± 2.18 |
| CCO/C=N/C1=C(C#N)C(c2cccs2)C2=C(CCCC2=O)O1 (centres unmarked) [Compound 2, Ethyl (E)-N-(3-Cyano-5-oxo-4-(thiophen-2-yl)-5,6,7,8-tetrahydro-4H-chromen-2-yl)formimidate] | 27.3 ± 3.87 | 29.4 ± 2.35 | 29.9 ± 3.05 |  |
| N#CCc1nc(N)c2c(n1)OC1=C(C(=O)CCC1)C2c1cccs1 (centres unmarked) [Compound 11, 2-(4-Amino-6-oxo-5-(thiophen-2-yl)-6,7,8,9-tetrahydro-5H-chromeno[2,3-d]pyrimidin-2-yl)acetonitrile] | 50.5 ± 3.16 | 60.1 ± 3.45 | 50.7 ± 3.23 |  |
| Nc1nc(=S)[nH]c2c1C(c1cccs1)C1=C(CCCC1=O)O2 (centres unmarked) [Compound 4b, 4-Amino-5-(thiophen-2-yl)-2-thioxo-1,2,5,7,8,9-hexahydro-6H-chromeno[2,3-d]pyrimidin-6-one] | 17.8 ± 2.04 | 18.8 ± 3.19 | 17.1 ± 3.17 | 58.1 ± 2.34 |
| CC(=O)N(C(C)=O)C1=C(C#N)C(c2cccs2)C2=C(CCCC2=O)O1 (centres unmarked) [Compound 17, N-Acetyl-N-(3-cyano-5-oxo-4-(thiophen-2-yl)-5,6,7,8-tetrahydro-4H-chromen-2-yl)acetamide] | 25.3 ± 1.34 | 29 ± 2.38 | 24.3 ± 3.88 |  |
| N=c1c2c(nc(-c3ccccc3)n1N)OC1=C(C(=O)CCC1)C2c1cccs1 (centres unmarked) [Compound 19, 3-Amino-4-imino-2-phenyl-5-(thiophen-2-yl)-3,4,5,7,8,9-hexahydro-6H-chromeno[2,3-d]pyrimidin-6-one] | 13.3 ± 1.96 | 15.2 ± 1.65 | 14.3 ± 1.96 | 60.5 ± 1.94 |
| N=c1c2c(ncn1N)OC1=C(C(=O)CCC1)C2c1cccs1 (centres unmarked) [Compound 3, 3-Amino-4-imino-5-(thiophen-2-yl)-3,4,5,7,8,9-hexahydro-6H-chromeno[2,3-d]pyrimidin-6-one] | 2.02 ± 0.15 | 1.61 ± 0.12 | 1.87 ± 0.32 | 77.3 ± 3.22 |
| NC(=S)Cc1nc(N)c2c(n1)OC1=C(C(=O)CCC1)C2c1cccs1 (centres unmarked) [Compound 13, 2-(4-Amino-6-oxo-5-(thiophen-2-yl)-6,7,8,9-tetrahydro-5H-chromeno[2,3-d]pyrimidin-2-yl)ethanethioamide] | 19.3 ± 2.07 | 18.1 ± 2.05 | 19.2 ± 3.88 | 51.6 ± 1.98 |
| CCOC(=O)NC1=C(C#N)C(c2cccs2)C2=C(CCCC2=O)O1 (centres unmarked) [Compound 14, Ethyl (3-Cyano-5-oxo-4-(thiophen-2-yl)-5,6,7,8-tetrahydro-4H-chromen-2-yl)carbamate] | 37.2 ± 1.45 | 39.3 ± 3.12 | 40.4 ± 3.15 |  |
| COc1cccc2c1C(=O)c1c(O)c3c(c(O)c1C2=O)C[C@@](O)(C(=O)CO)C[C@@H]3O[C@H]1C[C@H](N)[C@H](O)[C@H](C)O1 [doxorubicin, reference compound] | 2.71 ± 0.12 | 1.68 ± 0.11 | 2.22 ± 0.22 | 87.3 ± 1.47 |
